# According to paper PMC9090415, “Discovery of small molecule inhibitors of Plasmodium falciparum apicoplast DNA polymerase” (Journal of Enzyme Inhibition and Medicinal Chemistry, 2022):
# Target: P. falciparum apicoplast DNA polymerase (Pf-apPOL) (Plasmodium falciparum, UniProt Q8ILY1)
# Experiment: Fluorescence-based high-throughput DNA polymerase assay (molecular beacon), primary screen and dose-response
# Type: biochemical
# Protocol: The HT assay employs a molecular beacon, a stem-loop DNA template with a Cy3 dye and the Black Hole Quencher on the 3′ and 5′ ends of the DNA, respectively. Pf-apPOL concentration is based on a calculated absorptivity of ε280 = 56750 M^−1 cm^−1. Reactions were carried out at 25 °C, using Corning 3575 […] (well-volume, 20 µL). Assays testing for compound inhibition composed of reaction buffer (pH 7.9 in 50 mM potassium acetate, 20 mM Tris-acetate and 10 mM magnesium acetate), Pf-apPOL (20 nM), DNA substrate (20 nM), dNTPs (6 µM), and compound (10 µM in DMSO). The DNA and nucleotide substrates (dNTPs) were at concentrations of 20 nM and 6 µM, respectively, in the assay. Pf-apPOL was incubated in the reaction buffer with dNTPs and the compound of interest (10 µM, in the assay) at 25 °C for 10 min. The DNA substrate was then added and the reaction was allowed to proceed for 90 min at 25 °C.
# Each assay plate contained 16 negative controls (no Pf-apPOL, DMSO present) and 16 positive controls (Pf-apPOL present, no DMSO). The fluorescence of each well was determined using a BioTek Synergy Neo fluorescence plate reader using excitation and emission wavelengths of 555 and 570 nm, respectively.
# In the above, Min is the average of fluorescence emission of the negative controls (substrate only), Max the average fluorescence emission from the positive controls (enzyme + substrate), and Test the emission from the assays in the presence of compounds (enzyme + compound + substrates). […] […] The IC50 of each compound was determined using Equation (2): (2) IC50= Vmax/(1+ (I/IC50)^n)
# In the above, n measures cooperativity, with n > 1 indicating synergistic binding of more than a single molecule of the compound.
# To identify apPOL inhibitors we utilised our previously developed high-throughput DNA polymerase assay. The HT assay is based on a molecular beacon DNA template that forms a stem-loop with a Cy3 dye and the Black Hole Quencher on the 3′ and 5′ ends of the DNA, respectively. DNA polymerase activity extends an annealed primer through the stem region, displacing the fluorophore from the quencher, thereby increasing its fluorescence (Figure 1(A)). The assay accurately recapitulates the kinetic behaviour of apPOL, as measured through more conventional low-throughput gel-based assays. The Z′ factor for the assay described here was 0.9 across all plates (data not shown).
# Figure 1. High-throughput screening. (A) The fluorescent-based DNA polymerase assay used to screen the compound libraries. The DNA template strand is a hairpin loop with a primer annealed to the loop. The 3’ end of the primer is 11 bases away from the 6 bp duplex. Strand displacement activity of the DNA polymerase separates the Cy3 dye from the Black hole quencher leading to an increase in fluorescent signal. (B) The high-throughput assay workflow. The DNA polymerase is incubated with […] compound for 10 min prior to addition of the hairpin substrate. The reaction is quenched at 3 different time points and the fluorescent signal is measured and % inhibition is determined using the provided equation.
# [1] = supplemental file 2, sheet IC50 nontoxic compounds; Pf-apPOL
# Chain of P. falciparum apicoplast DNA polymerase (Pf-apPOL) (Q8ILY1 entry or part of it): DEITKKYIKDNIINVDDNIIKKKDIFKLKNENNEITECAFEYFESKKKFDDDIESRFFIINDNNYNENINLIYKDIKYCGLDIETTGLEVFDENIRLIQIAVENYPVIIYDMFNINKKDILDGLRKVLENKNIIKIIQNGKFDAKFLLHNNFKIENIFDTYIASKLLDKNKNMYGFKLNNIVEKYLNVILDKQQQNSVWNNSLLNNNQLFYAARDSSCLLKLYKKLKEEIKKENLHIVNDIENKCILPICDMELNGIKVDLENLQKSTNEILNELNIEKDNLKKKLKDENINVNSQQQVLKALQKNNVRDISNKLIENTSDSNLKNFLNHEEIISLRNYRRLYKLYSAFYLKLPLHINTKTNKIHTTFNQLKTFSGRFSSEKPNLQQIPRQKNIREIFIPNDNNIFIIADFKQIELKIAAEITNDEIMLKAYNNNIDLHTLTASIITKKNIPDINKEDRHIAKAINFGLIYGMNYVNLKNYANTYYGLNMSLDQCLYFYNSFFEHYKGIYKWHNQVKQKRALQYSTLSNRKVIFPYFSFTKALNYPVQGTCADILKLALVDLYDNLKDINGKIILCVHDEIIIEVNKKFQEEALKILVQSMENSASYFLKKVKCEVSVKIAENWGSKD
smiles,measurement,setting,value
COc1ccc(C(=O)Nc2cccc(-c3nc4ncccc4o3)c2)cc1[N+](=O)[O-] [KU0063313],DNA Pol,"186 hits, value of the hit list (primary screen); unit not given; 90 min, 10 µM",31
same,% inhibition Apo pol 10',DRC-1; 10'; concentration 2.5,4.335%
same,% inhibition Apo pol 10',DRC-1; 10'; concentration 5,2.852%
same,% inhibition Apo pol 10',DRC-1; 10'; concentration 10,35.1619%
same,% inhibition Apo pol 10',DRC-1; 10'; concentration 20,59.4699%
same,% inhibition Apo pol 10',DRC-1; 10'; concentration 40,4.461%
same,% inhibition Apo pol 10',DRC-1; 10'; concentration 80,70.0671%
same,% inhibition Apol 90',DRC-1; 90'; concentration 2.5,2.478%
same,% inhibition Apol 90',DRC-1; 90'; concentration 5,4.0361%
same,% inhibition Apol 90',DRC-1; 90'; concentration 10,26.4412%
same,% inhibition Apol 90',DRC-1; 90'; concentration 20,41.4228%
same,% inhibition Apol 90',DRC-1; 90'; concentration 40,2.829%
same,% inhibition Apol 90',DRC-1; 90'; concentration 80,43.7849%
same,% inhibition apPOL 180',DRC-1; 180'; concentration 2.5,-1.663%
same,% inhibition apPOL 180',DRC-1; 180'; concentration 5,2.317%
same,% inhibition apPOL 180',DRC-1; 180'; concentration 10,20.5277%
same,% inhibition apPOL 180',DRC-1; 180'; concentration 20,37.6573%
same,% inhibition apPOL 180',DRC-1; 180'; concentration 40,6.705%
same,% inhibition apPOL 180',DRC-1; 180'; concentration 80,38.9716%
same,% inhibition Apo pol 5',"DRC-2, 5', concentration 2.5",0.145%
same,% inhibition Apo pol 5',"DRC-2, 5', concentration 5",8%
same,% inhibition Apo pol 5',"DRC-2, 5', concentration 10",16%
same,% inhibition Apo pol 5',"DRC-2, 5', concentration 20",4%
same,% inhibition Apo pol 5',"DRC-2, 5', concentration 40",29%
same,% inhibition Apo pol 5',"DRC-2, 5', concentration 80",15%
same,% inhibition Apol 40',"DRC-2, 40', concentration 2.5",0.929%
same,% inhibition Apol 40',"DRC-2, 40', concentration 5",10%
same,% inhibition Apol 40',"DRC-2, 40', concentration 10",18%
same,% inhibition Apol 40',"DRC-2, 40', concentration 20",1.88%
same,% inhibition Apol 40',"DRC-2, 40', concentration 40",61%
same,% inhibition Apol 40',"DRC-2, 40', concentration 80",45%
same,% inhibition ApPOL 90',"DRC-2, 90', concentration 2.5",0.838%
same,% inhibition ApPOL 90',"DRC-2, 90', concentration 5",10%
same,% inhibition ApPOL 90',"DRC-2, 90', concentration 10",15%
same,% inhibition ApPOL 90',"DRC-2, 90', concentration 20",-0.691%
same,% inhibition ApPOL 90',"DRC-2, 90', concentration 40",68%
same,% inhibition ApPOL 90',"DRC-2, 90', concentration 80",58%
same,% inhibition apPOL 180',"DRC-2, 180', concentration 2.5",-5%
same,% inhibition apPOL 180',"DRC-2, 180', concentration 5",2.55%
same,% inhibition apPOL 180',"DRC-2, 180', concentration 10",8%
same,% inhibition apPOL 180',"DRC-2, 180', concentration 20",-8%
same,% inhibition apPOL 180',"DRC-2, 180', concentration 40",73%
same,% inhibition apPOL 180',"DRC-2, 180', concentration 80",62%
same,% inhibition Apo pol 5',DRC-2; 5'; concentration 5,8%
same,% inhibition Apo pol 5',DRC-2; 5'; concentration 80,15%
same,% inhibition Apol 40',DRC-2; 40'; concentration 5,10%
same,% inhibition ApPOL 90',DRC-2; 90'; concentration 5,10%
same,% inhibition ApPOL 90',DRC-2; 90'; concentration 10,15%
same,% inhibition apPOL 180',DRC-2; 180'; concentration 10,8%
same,DNA Pol,"primary screen value, 'DNA Pol' only; 90 min, 10 µM",31
CN(C)C=C1SCc2ccccc2C1=O [Molecule 77],IC50,[1],23.7 µM
"O=C(CSc1nnc(-c2ccncc2)[nH]1)c1ccc(O)c(O)c1 [Molecule 89, O=C(c1ccc(c(c1)O)O)CSc1nnc([nH]1)c1ccncc1]",% inhibition Apo pol 10',DRC-1; 10'; concentration 2.5,60.0938%
same,% inhibition Apo pol 10',DRC-1; 10'; concentration 5,82.0224%
same,% inhibition Apo pol 10',DRC-1; 10'; concentration 10,88.031%
same,% inhibition Apo pol 10',DRC-1; 10'; concentration 20,91.1846%
same,% inhibition Apo pol 10',DRC-1; 10'; concentration 40,93.0486%
same,% inhibition Apo pol 10',DRC-1; 10'; concentration 80,94.9385%
same,% inhibition Apol 90',DRC-1; 90'; concentration 2.5,43.8309%
same,% inhibition Apol 90',DRC-1; 90'; concentration 5,70.0142%
same,% inhibition Apol 90',DRC-1; 90'; concentration 10,80.3522%
same,% inhibition Apol 90',DRC-1; 90'; concentration 20,84.6554%
same,% inhibition Apol 90',DRC-1; 90'; concentration 40,86.229%
same,% inhibition Apol 90',DRC-1; 90'; concentration 80,90.5693%
same,% inhibition apPOL 180',DRC-1; 180'; concentration 2.5,29.303%
same,% inhibition apPOL 180',DRC-1; 180'; concentration 5,56.5831%
same,% inhibition apPOL 180',DRC-1; 180'; concentration 10,70.7438%
same,% inhibition apPOL 180',DRC-1; 180'; concentration 20,76.8269%
same,% inhibition apPOL 180',DRC-1; 180'; concentration 40,78.119%
same,% inhibition apPOL 180',DRC-1; 180'; concentration 80,84.9374%
same,% inhibition Apo pol 5',DRC-2; 5'; concentration 2.5,47%
same,% inhibition Apo pol 5',DRC-2; 5'; concentration 5,49%
same,% inhibition Apo pol 5',DRC-2; 5'; concentration 10,52%
same,% inhibition Apo pol 5',DRC-2; 5'; concentration 20,53%
same,% inhibition Apo pol 5',DRC-2; 5'; concentration 40,57%
same,% inhibition Apo pol 5',DRC-2; 5'; concentration 80,58%
same,% inhibition Apol 40',DRC-2; 40'; concentration 2.5,53%
same,% inhibition Apol 40',DRC-2; 40'; concentration 5,62%
same,% inhibition Apol 40',DRC-2; 40'; concentration 10,68%
same,% inhibition Apol 40',DRC-2; 40'; concentration 20,71%
same,% inhibition Apol 40',DRC-2; 40'; concentration 40,76%
same,% inhibition Apol 40',DRC-2; 40'; concentration 80,78%
same,% inhibition ApPOL 90',DRC-2; 90'; concentration 2.5,50%
same,% inhibition ApPOL 90',DRC-2; 90'; concentration 5,62%
same,% inhibition ApPOL 90',DRC-2; 90'; concentration 10,69%
same,% inhibition ApPOL 90',DRC-2; 90'; concentration 20,73%
same,% inhibition ApPOL 90',DRC-2; 90'; concentration 40,78%
same,% inhibition ApPOL 90',DRC-2; 90'; concentration 80,80%
same,% inhibition apPOL 180',DRC-2; 180'; concentration 2.5,34%
same,% inhibition apPOL 180',DRC-2; 180'; concentration 5,53%
same,% inhibition apPOL 180',DRC-2; 180'; concentration 10,63%
same,% inhibition apPOL 180',DRC-2; 180'; concentration 20,68%
same,% inhibition apPOL 180',DRC-2; 180'; concentration 40,76%
same,% inhibition apPOL 180',DRC-2; 180'; concentration 80,80%
same,% inhibition Apol 40',conc. 2.5; 40'; DRC-2,53%
same,% inhibition Apol 40',conc. 5; 40'; DRC-2,62%
same,% inhibition ApPOL 90',conc. 5; 90'; DRC-2,62%
same,% inhibition apPOL 180',conc. 5; 180'; DRC-2,53%
same,% inhibition Apol 40',conc. 10; 40'; DRC-2,68%
same,% inhibition Apo pol 5',conc. 20; 5'; DRC-2,53%
same,% inhibition apPOL 180',conc. 20; 180'; DRC-2,68%
same,% inhibition Apol 40',conc. 40; 40'; DRC-2,76%
same,% inhibition ApPOL 90',conc. 40; 90'; DRC-2,78%
same,% inhibition apPOL 180',conc. 40; 180'; DRC-2,76%
same,% inhibition Apol 40',conc. 80; 40'; DRC-2,78%
same,% inhibition ApPOL 90',conc. 80; 90'; DRC-2,80%
same,% inhibition apPOL 180',conc. 80; 180'; DRC-2,80%
same,DNA Pol,"primary screen value by plate and well; 90 min, 10 µM",90
same,DNA Pol,"primary screen value of the 186 hits; unit not given; 90 min, 10 µM",90
Cc1ccc(CNC(=O)c2cnn3c(O)cc(CSc4ccc(Cl)cc4)nc23)cc1 [Molecule 99],IC50,[1],9.14 µM
O=C(Cc1cccs1)N1CCN(c2nc(CN3CCOCC3)cs2)CC1 [Molecule 35],IC50,[1],11.2 µM
COc1ccc(C2CC(c3ccc(Cl)cc3Cl)Nc3nc(N)nn32)cc1OC (stereo not shown) [Molecule 43],IC50,[1],11.7 µM
Cc1ccc(N2CCC(NC(=O)Cc3cccs3)C2=O)cc1C (stereo not shown) [Molecule 57],IC50,[1],29 µM
